Laboratory results from patent publication EP0271829A2, “Delta-hydroxy-beta-lysine derivatives and their production” (Takeda Chemical Industries, Ltd., priority 1986, dated 1988).
In brackets after ≈: the same amount, converted by molar mass.

Assays:
S. aureus 308A-1 [1] = experiment: Antibacterial activity against gram-positive bacteria (MIC on Tripticase Soy Agar); assay type: cell-based; settings: Staphylococcus aureus, 308A1, Medium: Tripticase Soy Agar, Inoculum size: 10^8 cfu/ml
Text: (§1) Thus obtained Compound (I) is useful as medicines, for example, antibiotics against certain types of gram-positive and gram-negative beacteria. [table] [table]

S. aureus 308A-1 [2] = experiment: Antibacterial activity in mice, s.c. (ED50); assay type: in vivo; settings: Staphylococcus aureus, 308A1, sc
Text: as §1

C=C/C=C/C(=O)NCC(O)CC(N)CC(=O)NCCC(=N)N (stereo not shown) [Compound 38b]
MIC (S. aureus 308A-1 [1]): 100 µg/mL (≈ 321 µM)
ED50 (S. aureus 308A-1 [2]): 6.25 mg/kg

C/C=C\C=C\C(=O)NCC(O)CC(CC(=O)NCCC(=N)N)NC (stereo not shown) [Compound 80]
MIC (S. aureus 308A-1 [1]): > 100 µg/mL
ED50 (S. aureus 308A-1 [2]): 9.64 mg/kg

C/C=C\C=C\C(=O)NCC(O)CC(CC(=O)NCCC(=N)N)NCC (stereo not shown) [Compound 82]
MIC (S. aureus 308A-1 [1]): > 100 µg/mL
ED50 (S. aureus 308A-1 [2]): 25 mg/kg

C/C=C\C=C\C(=O)NCC(O)CC(CC(=O)NCCC(=N)N)NC(=O)C(N)CCCCC(=O)OC (stereo not shown) [Compound 86b]
MIC (S. aureus 308A-1 [1]): > 100 µg/mL
ED50 (S. aureus 308A-1 [2]): 25 mg/kg

CN(CC(=O)O)NC(=O)C[C@H](N)C[C@@H](O)CN [Negamycin, 2-(3R,5R)-3,6-diamino-5-hydroxyhexanoyl-1-methylhydrazinoacetic acid, reference compound]
MIC (S. aureus 308A-1 [1]): > 100 µg/mL
ED50 (S. aureus 308A-1 [2]): 38.6 mg/kg
